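These data come from cells grown in 96-well plates and exposed to compound for 48 hours at five concentrations. The concentration for 50% growth inhibition is given as GI50.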 The source made the active and inactive calls. Cut-off read from the data, not from the text of the source: active = GI50 up to about 1.1 µM and inactive = higher.
Tests used:
Assay in all cases: NCI tumour cell line growth inhibition, 48 h
DMS-114 = tested on: DMS-114
DLD-1 = tested on: DLD-1
HOP-18 = tested on: HOP-18
SNB-78 = tested on: SNB-78
LXFL 529 = tested on: LXFL 529
DMS-273 = tested on: DMS-273
M19-MEL = tested on: M19-MEL
RXF 631 = tested on: RXF 631
XF498 = tested on: XF498

Compound | GI50 (DMS-114) | GI50 (DLD-1) | GI50 (HOP-18) | GI50 (SNB-78) | GI50 (LXFL 529) | GI50 (DMS-273) | GI50 (M19-MEL) | GI50 (RXF 631) | GI50 (XF498)
COC(=O)c1c(OC(=O)c2ccccc2)noc1CC(=O)OC1C=CCCC1 (stereo not given) | 38.5 µM (inactive) | > 100 µM (inactive) | > 100 µM (inactive) | > 100 µM (inactive) | 58.7 µM (inactive) | > 100 µM (inactive) |  |  | 
O=C(CC1(O)C(=O)Nc2ccccc21)c1ccc(Cl)c(Cl)c1 (stereo not given) | > 100 µM (inactive) | > 100 µM (inactive) |  | 97.3 µM (inactive) | > 100 µM (inactive) | > 100 µM (inactive) | 77.4 µM (inactive) |  | 
C/N=C1\CC2c3cc(OC)c(OC)cc3CCN2C2=C1C(=O)CC(C)(C)C2 (stereo not given) | > 100 µM (inactive) | > 100 µM (inactive) |  | > 100 µM (inactive) | > 100 µM (inactive) | > 100 µM (inactive) | > 100 µM (inactive) |  | 
CC1=NOC(=O)/C1=C/c1ccccc1O | > 100 µM (inactive) | > 100 µM (inactive) | > 100 µM (inactive) | > 100 µM (inactive) | > 100 µM (inactive) | > 100 µM (inactive) | > 100 µM (inactive) | > 100 µM (inactive) | > 100 µM (inactive)
Cc1ccn2c(c1)nc1nc3ccccc3nc12 | > 100 µM (inactive) | > 100 µM (inactive) |  | > 100 µM (inactive) | > 100 µM (inactive) | > 100 µM (inactive) | > 100 µM (inactive) |  | > 100 µM (inactive)
COC(=O)Nc1nc2cc(Br)ccc2[nH]1 | 23.1 µM (inactive) | 42.3 µM (inactive) | 64.1 µM (inactive) | 42.4 µM (inactive) | 47.2 µM (inactive) | 16 µM (inactive) | 28.8 µM (inactive) |  | 23.6 µM (inactive)
CC1=C(c2cc(C(=O)Nc3cc(C)ccc3C)nc(N)n2)Sc2ccccc2N1 | > 100 µM (inactive) | > 100 µM (inactive) | > 100 µM (inactive) | > 100 µM (inactive) | > 100 µM (inactive) | > 100 µM (inactive) | > 100 µM (inactive) | > 100 µM (inactive) | 
NN/C(Cc1ccccc1)=N\NO | 25.5 µM (inactive) | > 100 µM (inactive) | > 100 µM (inactive) |  | 55.1 µM (inactive) | > 100 µM (inactive) | > 100 µM (inactive) | 32.2 µM (inactive) | 
COC1=CC(=Nc2c(Cl)cc(Cl)cc2OC(=O)c2ccc([N+](=O)[O-])cc2)C=C(OC)C1=O | 3.79 µM (inactive) | 12.4 µM (inactive) |  | 23.3 µM (inactive) | 5.78 µM (inactive) | 13.6 µM (inactive) | 3.41 µM (inactive) | 4.51 µM (inactive) | 8.39 µM (inactive)
COc1cc2c(c(OC)c1OC)-c1ccc(SC)c(=O)cc1C(NC(=O)c1ccccc1)CC2 (stereo not given) |  | < 0.01 µM (active) | 77.1 µM (inactive) | < 0.01 µM (active) | < 0.01 µM (active) | < 0.01 µM (active) |  |  | < 0.0601 µM (active)
O=c1/c(=C/c2cccc3ccccc23)sc2nc3ccccc3n12 | > 100 µM (inactive) | > 100 µM (inactive) | > 100 µM (inactive) | > 100 µM (inactive) | > 100 µM (inactive) | > 100 µM (inactive) | > 100 µM (inactive) | > 100 µM (inactive) | 
C=CCOC(=O)C1CCC(=O)N1C(=O)C(Cl)Cl (stereo not given) | > 100 µM (inactive) | > 100 µM (inactive) | > 100 µM (inactive) | > 100 µM (inactive) | > 100 µM (inactive) | > 100 µM (inactive) | > 100 µM (inactive) |  | 17.7 µM (inactive)
Cc1ccc(Nc2ccc(Nc3ccc(C)cc3S(=O)(=O)O)c3c2C(=O)c2ccccc2C3=O)c(S(=O)(=O)O)c1 | > 100 µM (inactive) | > 100 µM (inactive) | > 100 µM (inactive) | > 100 µM (inactive) | > 100 µM (inactive) | > 100 µM (inactive) |  | > 100 µM (inactive) | 
C=CCc1cc(OC)c2c(c1)C(OC)CC(c1ccc(OC)c(OC)c1)O2 (stereo not given) | 67.5 µM (inactive) | > 100 µM (inactive) |  | > 100 µM (inactive) | > 100 µM (inactive) | > 100 µM (inactive) | > 100 µM (inactive) | > 100 µM (inactive) | > 100 µM (inactive)
CC1=Cc2cccc(C)c2C(=O)C1=O [O-HIBISCANONE] |  | 2.13 µM (inactive) | 1.42 µM (inactive) | 26 µM (inactive) | 2.11 µM (inactive) | 19.9 µM (inactive) | 7.67 µM (inactive) |  | 5.2 µM (inactive)
CC[C@@H]1C[C@H]2CC3c4[nH]c5ccc(O)cc5c4CCN(C2)C31 | > 100 µM (inactive) |  | > 100 µM (inactive) | > 100 µM (inactive) | > 100 µM (inactive) | > 100 µM (inactive) | > 100 µM (inactive) | > 100 µM (inactive) | > 100 µM (inactive)
CCn1c2c(c3ccccc31)[C@@H](c1ccc(Cl)cc1)CC1C(=O)N(c3ccccc3)C(=O)C21 (stereo not given in full) | 46.8 µM (inactive) | > 100 µM (inactive) | > 100 µM (inactive) | 26.4 µM (inactive) | > 100 µM (inactive) | > 100 µM (inactive) | > 100 µM (inactive) |  | 64.6 µM (inactive)
N#Cc1ccccc1NC(=O)C(=O)C1NC(=S)NC1=O (stereo not given) | > 100 µM (inactive) | > 100 µM (inactive) | 46.6 µM (inactive) |  | > 100 µM (inactive) |  | > 100 µM (inactive) |  | > 100 µM (inactive)
CC(C)=C1CCC(CN2CCOCC2)C1=O (stereo not given) | 7.89 µM (inactive) | 4.38 µM (inactive) | 9.35 µM (inactive) | 9.38 µM (inactive) | 2.38 µM (inactive) |  | 22.1 µM (inactive) | 9.23 µM (inactive) | 12.7 µM (inactive)
CCOc1ccccc1/N=C(/NC(=O)CC)SC | > 10 µM (inactive) | 88.3 µM (inactive) | > 10 µM (inactive) | > 10 µM (inactive) | > 10 µM (inactive) | > 10 µM (inactive) | > 10 µM (inactive) | > 10 µM (inactive) | 
COc1c(C)cc2c(C(C)C)c(O)c(O)c(C=O)c2c1O | 17.8 µM (inactive) | 32.1 µM (inactive) | 14.9 µM (inactive) | 27.9 µM (inactive) | 24.8 µM (inactive) | 23 µM (inactive) | 26.5 µM (inactive) |  | 39 µM (inactive)
